Experimental findings from patent US20100062083A1, “DERMAL FILM-FORMING LIQUID FORMULATIONS FOR DRUG RELEASE TO SKIN” (POLICHEM S.A., priority 2007, published 2010) are described below.

This series in a line: in vitro permeation test, Gummer permeation vertical cells. The class given is in vitro ADME, mice. The note with it: for ciclopirox permeated: 75.0 μL of composition of Example 4 on hairless mice skin, individual experiments test 1-6. How it is done:
An in vitro permeation test was performed by applying the film forming solution according to the Example 4 to excised hairless mice skin, obtained from dorsal or abdominal skin of male hairless mice (strain MF1-hr-hr/OIa, Nossan srl, Correzzana, Milan, Italy) aged 7-10 weeks. Portions of the skin (ca 9 cm^2), after removal of adhering fat and subcutaneous tissues, were placed as a barrier between the two compartment of Gummer permeation vertical cells (Gummer, C. L. et al. The skin penetration cell: design update. Int. J. Pharm. 1987, 40, 101-104). The receiving phase was introduced into the lower compartment and 75.0 μL of the composition according to the Example 4 were regularly distributed on the exposed skin surface. At predetermined time intervals (1, 2, 3, 4 and 5 hours) 5.0 mL of the receiving solution were collected for analysis and immediately replaced by an equal volume of fresh buffer. The experiment was replicated 6 times.

Structures are written as SMILES. Where “and” joins values, the source holds several entries; their conditions need not be identical. Equal values may be shown once.

For the compound `Cc1cc(C2CCCCC2)n(O)c(=O)c1` [ciclopirox], the “permeation through mice skin, conclusion” value is “able to permeate the mice skin”. The ciclopirox permeated (h 1) was 0.001548 mg/cm^2 and 0.002964 mg/cm^2 and 0.001542 mg/cm^2 and 0.001617 mg/cm^2 and 0.00487 mg/cm^2 and 0.02038 mg/cm^2. Also, the ciclopirox permeated (h 2) is 0.01134 mg/cm^2 and 0.05066 mg/cm^2 and 0.01241 mg/cm^2 and 0.0445 mg/cm^2 and 0.04696 mg/cm^2 and 0.1182 mg/cm^2. In addition, for the setting “h 3”, the ciclopirox permeated is 0.05601 mg/cm^2 and 0.102 mg/cm^2 and 0.04902 mg/cm^2 and 0.1745 mg/cm^2 and 0.2725 mg/cm^2 and 0.4084 mg/cm^2. Moreover, for the setting “h 4”, the ciclopirox permeated is 0.1146 mg/cm^2 and 0.1226 mg/cm^2 and 0.08552 mg/cm^2 and 0.2757 mg/cm^2 and 0.5273 mg/cm^2 and 0.7623 mg/cm^2. For the same compound, the ciclopirox permeated (h 5) was 0.1721 mg/cm^2 and 0.1401 mg/cm^2 and 0.1517 mg/cm^2 and 0.328 mg/cm^2 and 0.7212 mg/cm^2 and 1.025 mg/cm^2.
